Solubility data for one substance are collected here from US12024584B2, “Methods and compositions for polyurethane dispersions using caprolactam-derived solvents” (AdvanSix Resins & Chemicals LLC, priority 2017, dated 2024).

This data set can be described thus: Solubility of DMPA in solvents. The protocol: Solubility was tested between the various solvents to determine their applicability in the PUD manufacturing processes. Solubility is the amount of a substance (coalescing agent) that dissolves in a unit volume of a liquid substance (solvent) to form a saturated solution under specified conditions of temperature and pressure. For the examples, amounts of […] (DMPA) were dissolved in each solvent.

On to “N-butyl pyrrolidone [NBP, reference compound]”, for which the Solubility is given as 20.0 g/100 g of Solvent.
